Test results: PubChem BioAssay (NCI)
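GI50 is the concentration that inhibits growth by half. TGI is the concentration that stops growth completely.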

Tests used:
Experiment in all cases: NCI anticancer screen, dose series, 384-well format
SNB-19 CNS = tested on: SNB-19 CNS
ACHN renal = tested on: ACHN renal
786-0 renal = tested on: 786-0 renal
SK-MEL-28 melanoma = tested on: SK-MEL-28 melanoma
NCI/ADR-RES ovarian = tested on: NCI/ADR-RES ovarian
MCF7 breast = tested on: MCF7 breast
RXF 393 renal = tested on: RXF 393 renal
HCT-116 colon = tested on: HCT-116 colon
UACC-62 melanoma = tested on: UACC-62 melanoma
SF-539 CNS = tested on: SF-539 CNS
UACC-257 melanoma = tested on: UACC-257 melanoma
DU-145 prostate = tested on: DU-145 prostate
LOX IMVI melanoma = tested on: LOX IMVI melanoma
CAKI-1 renal = tested on: CAKI-1 renal
NCI-H23 lung = tested on: NCI-H23 lung
OVCAR-3 ovarian = tested on: OVCAR-3 ovarian
SK-MEL-2 melanoma = tested on: SK-MEL-2 melanoma
T-47D breast = tested on: T-47D breast
SK-MEL-5 melanoma = tested on: SK-MEL-5 melanoma
KM12 colon = tested on: KM12 colon
A498 renal = tested on: A498 renal
K-562 leukemia = tested on: K-562 leukemia
HCT-15 colon = tested on: HCT-15 colon
PC-3 prostate = tested on: PC-3 prostate
SR leukemia = tested on: SR leukemia
NCI-H460 NSCLC = tested on: NCI-H460 NSCLC
NCI-H522 lung = tested on: NCI-H522 lung
HOP-92 NSCLC = tested on: HOP-92 NSCLC
NCI-H322M lung = tested on: NCI-H322M lung
HT29 colon = tested on: HT29 colon
OVCAR-8 ovarian = tested on: OVCAR-8 ovarian
M14 melanoma = tested on: M14 melanoma
CCRF-CEM leukemia = tested on: CCRF-CEM leukemia
SW-620 colon = tested on: SW-620 colon
UO-31 renal = tested on: UO-31 renal
COLO 205 colon = tested on: COLO 205 colon
BT-549 breast = tested on: BT-549 breast
NCI-H226 lung = tested on: NCI-H226 lung
A549 NSCLC = tested on: A549 NSCLC
OVCAR-4 ovarian = tested on: OVCAR-4 ovarian
HL-60(TB) leukemia = tested on: HL-60(TB) leukemia
HOP-62 NSCLC = tested on: HOP-62 NSCLC
MOLT-4 leukemia = tested on: MOLT-4 leukemia
IGROV1 ovarian = tested on: IGROV1 ovarian
RPMI-8226 leukemia = tested on: RPMI-8226 leukemia
SN12C renal = tested on: SN12C renal
OVCAR-5 ovarian = tested on: OVCAR-5 ovarian
HCC-2998 colon = tested on: HCC-2998 colon
TK-10 renal = tested on: TK-10 renal
MALME-3M melanoma = tested on: MALME-3M melanoma
SF-268 CNS = tested on: SF-268 CNS
U251 glioblastoma = tested on: U251 glioblastoma
MDA-MB-468 breast = tested on: MDA-MB-468 breast
MDA-MB-435 melanoma = tested on: MDA-MB-435 melanoma

## CN[C@@H](C)C(=O)N[C@H](C(=O)N1CCC[C@H]1C(=O)N[C@H]1c2ccccc2C[C@H]1OCC#CC#CCO[C@@H]1Cc2ccccc2[C@@H]1NC(=O)[C@@H]1CCCN1C(=O)[C@@H](NC(=O)[C@H](C)NC)C1CCCCC1)C1CCCCC1
SNB-19 CNS
  GI50: 1560 nM
  TGI: 2970 nM
ACHN renal
  GI50: 15300 nM
  TGI: 28600 nM
786-0 renal
  GI50: 2920 nM
  TGI: 11400 nM
SK-MEL-28 melanoma
  GI50: 1370 nM
  TGI: 2670 nM
NCI/ADR-RES ovarian
  GI50: 4650 nM
  TGI: 35500 nM
MCF7 breast
  GI50: 1330 nM
  TGI: 2620 nM
RXF 393 renal
  GI50: < 10 nM
  TGI: < 10 nM
HCT-116 colon
  GI50: 1670 nM
  TGI: 3120 nM
UACC-62 melanoma
  GI50: 1650 nM
  TGI: 3010 nM
SF-539 CNS
  GI50: 1640 nM
  TGI: 3010 nM
UACC-257 melanoma
  GI50: 1520 nM
  TGI: 2850 nM
DU-145 prostate
  GI50: 1040 nM
  TGI: 2530 nM
LOX IMVI melanoma
  GI50: 2120 nM
  TGI: 3560 nM
CAKI-1 renal
  GI50: 15100 nM
  TGI: 28400 nM
NCI-H23 lung
  GI50: < 10 nM
  TGI: 57.6 nM
OVCAR-3 ovarian
  GI50: 1320 nM
  TGI: 2640 nM
SK-MEL-2 melanoma
  GI50: < 10 nM
  TGI: < 10 nM
T-47D breast
  GI50: 1730 nM
  TGI: 3170 nM
SK-MEL-5 melanoma
  GI50: < 10 nM
  TGI: 44.6 nM
KM12 colon
  GI50: 1650 nM
  TGI: 3030 nM
A498 renal
  GI50: 13500 nM
  TGI: 26300 nM
K-562 leukemia
  GI50: 2320 nM
  TGI: 6270 nM
HCT-15 colon
  GI50: 18000 nM
  TGI: 31900 nM
PC-3 prostate
  GI50: 1810 nM
  TGI: 3850 nM
SR leukemia
  GI50: 18.8 nM
  TGI: 1050 nM
NCI-H460 NSCLC
  GI50: 1770 nM
  TGI: 3190 nM
NCI-H522 lung
  GI50: < 10 nM
  TGI: 1020 nM
HOP-92 NSCLC
  GI50: < 10 nM
  TGI: 641 nM
NCI-H322M lung
  GI50: 2250 nM
  TGI: 5310 nM
HT29 colon
  GI50: 1660 nM
  TGI: 3100 nM
OVCAR-8 ovarian
  GI50: 135 nM
  TGI: 2220 nM
M14 melanoma
  GI50: 1900 nM
  TGI: 3490 nM
CCRF-CEM leukemia
  GI50: < 10 nM
  TGI: 1310 nM
SW-620 colon
  GI50: 2160 nM
  TGI: 4300 nM
UO-31 renal
  GI50: 19500 nM
  TGI: 33700 nM
COLO 205 colon
  GI50: 1370 nM
  TGI: 2660 nM
BT-549 breast
  GI50: < 10 nM
  TGI: 1920 nM
NCI-H226 lung
  GI50: 6960 nM
  TGI: 19800 nM
A549 NSCLC
  GI50: 5330 nM
  TGI: 18600 nM
OVCAR-4 ovarian
  GI50: < 10 nM
  TGI: < 10 nM
HL-60(TB) leukemia
  GI50: < 10 nM
  TGI: < 10 nM
HOP-62 NSCLC
  GI50: 34.9 nM
  TGI: 441 nM
MOLT-4 leukemia
  GI50: 1480 nM
  TGI: 2800 nM
IGROV1 ovarian
  GI50: 1780 nM
  TGI: 3460 nM
RPMI-8226 leukemia
  GI50: < 10 nM
  TGI: 1100 nM
SN12C renal
  GI50: 2140 nM
  TGI: 3610 nM
OVCAR-5 ovarian
  GI50: 12300 nM
  TGI: 24800 nM
HCC-2998 colon
  GI50: 1620 nM
  TGI: 2980 nM
TK-10 renal
  GI50: 14000 nM
  TGI: 27000 nM
MALME-3M melanoma
  GI50: < 10 nM
  TGI: < 10 nM
SF-268 CNS
  GI50: 1670 nM
  TGI: 3040 nM
U251 glioblastoma
  GI50: 1490 nM
  TGI: 2820 nM
MDA-MB-468 breast
  GI50: < 10 nM
  TGI: < 10 nM
MDA-MB-435 melanoma
  GI50: < 10 nM
  TGI: 2030 nM
